Results published in publication PMC7399337, “Biological Properties and Absolute Configuration of Flavanones From Calceolaria thyrsiflora Graham” (Frontiers in Pharmacology, 2020).
Converted amounts (≈) assume the structure as drawn. Like-named read-outs stand apart in the source and are kept apart here.

Tests used:
E. coli ATCC25922 = test: Antibacterial MIC, CLSI microdilution, human pathogens; type: cell-based; details: Escherichia coli, 18 h, read-out: Minimum inhibitory concentration (MIC)
Protocol: (§1) Briefly, stock solutions (5 mg/ml) of compounds in DMSO were diluted in Mueller-Hinton broth (MHB) to the different two-fold assay concentrations. […] The obtained solution was added to MHB and serially two-fold diluted in a 96-well microplate. A sample of 100 μL of inoculum 1.5 × 10^6 colony forming unit (CFU) ml^-1 in MHB was added and then incubated at 37°C for 18 h. The assay was repeated three times. Wells containing MHB, 100 μL of inoculum, and DMSO served as negative controls.

S. aureus MRSA 97-7 = test: as above; type: cell-based; details: Staphylococcus aureus, 18 h, read-out: Minimum inhibitory concentration (MIC)
Protocol: as §1

S. aureus NTCC8325-4 = test: as above; type: cell-based; details: Staphylococcus aureus, NTCC83254, 18 h, read-out: Minimum inhibitory concentration (MIC)
Protocol: as §1

E. coli 33.1 = test: as above; type: cell-based; details: Escherichia coli; E. coli 33.1 (multi-resistant); 18 h; read-out: Minimum inhibitory concentration (MIC)
Protocol: as §1

S. aureus MRSA 622-4 = test: as above; type: cell-based; details: Staphylococcus aureus, 18 h, read-out: Minimum inhibitory concentration (MIC)
Protocol: as §1

P. cinnamomi = test: In vitro fungicidal activity, radial mycelial growth test on PDA; type: cell-based, Phytophtora cinnamomi; details: Phytophthora cinnamomi, 120 h, read-out: Percentage of inhibition on in vitro mycelial growth of P. cinnamomi; for inhibition at 50 µg/mL: 50 mg/L; for inhibition at 150 µg/mL: 150 mg/L; for inhibition at 250 µg/mL: 250 mg/L
Protocol: A strain of Botrytis cinerea isolated from a naturally infected grape (Vitis vinifera) was used in all experiments. Isolated Phytophtora cinnamomi was provided by the Agricultural and Livestock Service of Valparaíso. Both strains were maintained on a potato dextrose agar (PDA) medium (DIFCO, Detroit, MI) at 4°C. The inoculum of both pathogens was grown on PDA and incubates in dark at 23°C for 5 days in the case of B. cinerea and 8 days for P. cinnamomi.
The fungicidal activity of flavanones, extracts, the negative control (C-) composed of solvent (1% ethanol), and the positive control (C+, commercial fungicide Captan® and metalaxil® for B. cinerea and P. cinnamomi, respectively) were assessed using the radial growth test technique on PDA medium as described ([Taborga et al., 2015]). All test samples were dissolved in ethanol (1%) and water, to obtain final concentrations of 50, 150, and 250 mg/L in the PDA medium. A plug (4 mm) of PDA medium with five-day-old mycelium colonies of the pathogen was placed at the center of a Petri dish with PDA medium with or without studied test samples and were incubated at 23°C in dark for 72 h (B. cinerea) and 120 h (P. cinnamomi). After incubation, the diameters of colonies were measured and the inhibition percentage was calculated as the average of three replicas compared to C-.

[1] = tested on: MEF primary mouse embryonic fibroblast; test: In vitro cytotoxic activity, CyQuant cell viability, 72 h; type: cell-based; details: MEF (non-cancerous cells); 72 h
Protocol: (§2) The used cell lines include MDA-MB-231 human breast adenocarcinoma cells, B16-F10 mouse metastatic melanoma cells and MEF primary mouse embryonic fibroblast. Cells were maintained in a DMEM high glucose medium (Mediatech, Manassas, VA, USA) supplemented with 10% (MDA-MB-231 and B16-F10) or 15% (MEF) heat-inactivated fetal bovine serum (HyClone Laboratories, South Logan, USA), 100 IU ml^-1 penicillin and 100 μg ml^-1 streptomycin while maintained at 37°C in a 5% CO2 humidified atmosphere. Cell viability was measured using a CyQuant® Direct Cell Proliferation Assay Kit (Life Technologies, Grand Island, NY, USA) following the manufacturer’s instruction. Briefly, 5,000 cells per well were seeded onto a flat-bottom 96-well plate in 200 μL final volume. Six hours after seeding, the culture medium was replaced by the medium containing the tested compounds at 0.01 to 100 µM concentrations in DMSO (0.1% final concentration) during 72 h. Untreated cells (medium containing only 0.1% DMSO) were used as controls. At the end of the incubation, 100 μL of culture medium was removed from each well and replaced by detection reagent solution provided by the kit (which is a 1:5 mixture of the reagent CyQUANT®, direct nucleic acid stain and the reagent labeled as CyQUANT® direct background suppressor I). Cells were incubated for 1 h and fluorescence emission was measured at 535 nm with excitation at 480 nm in a microplate reader (Infinite 200 PRO, Tecan, Grödig, Austria). At least four independent experiments were performed for each concentration. The results from each experiment were transformed into percentage of controls and the LC50 values were graphically obtained from the dose-response curves. The LC50 value was obtained adjusting the dose-response curve to sigmoidal curves (variable slope) using the GraphPad Prisma 6.0 software ([GraphPad-Software, 2015]).

[2] = tested on: MDA-MB-231 human breast adenocarcinoma cells; test: as above; type: cell-based; details: for CC50: Homo sapiens, MDA-MB-231, 72 h, read-out: LC50 ± SD
Protocol: as §2

[3] = as above; type: cell-based; details: mouse
Protocol: as §2

5-hLOX = target: T1, 5-hLOX (Homo sapiens, UniProt P09917); test: In vitro 5-hLOX enzyme assay (H2DCFDA fluorescence); type: biochemical; details: kinetic assays, inhibitor 0–1 μM, substrate 0.2–5 μM
T1 construct: purchased Cayman Chemicals Inc. (Ann Arbor, MI, USA)
T1 sequence (P09917 1-674): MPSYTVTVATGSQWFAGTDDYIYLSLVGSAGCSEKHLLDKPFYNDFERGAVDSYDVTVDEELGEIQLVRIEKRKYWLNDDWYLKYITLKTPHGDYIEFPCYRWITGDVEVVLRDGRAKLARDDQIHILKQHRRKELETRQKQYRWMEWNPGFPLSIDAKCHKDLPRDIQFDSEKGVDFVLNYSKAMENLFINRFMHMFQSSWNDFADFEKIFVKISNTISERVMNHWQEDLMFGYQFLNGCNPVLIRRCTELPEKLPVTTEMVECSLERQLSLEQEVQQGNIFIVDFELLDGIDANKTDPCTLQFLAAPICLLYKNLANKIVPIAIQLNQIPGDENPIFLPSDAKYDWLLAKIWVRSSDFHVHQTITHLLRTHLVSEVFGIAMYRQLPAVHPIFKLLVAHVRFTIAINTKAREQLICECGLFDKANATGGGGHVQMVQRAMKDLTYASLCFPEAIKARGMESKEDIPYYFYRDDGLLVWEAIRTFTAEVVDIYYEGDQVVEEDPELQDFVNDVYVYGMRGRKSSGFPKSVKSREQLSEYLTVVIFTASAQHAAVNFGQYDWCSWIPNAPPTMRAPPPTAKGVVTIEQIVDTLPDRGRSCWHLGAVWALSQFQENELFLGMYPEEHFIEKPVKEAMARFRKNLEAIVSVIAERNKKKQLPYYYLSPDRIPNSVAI

Ki (5-hLOX)	SMILES	MIC (E. coli ATCC25922)	MIC (S. aureus MRSA 97-7)	MIC (S. aureus NTCC8325-4)	MIC (E. coli 33.1)	MIC (S. aureus MRSA 622-4)	inhibition at 50 µg/mL (P. cinnamomi)	inhibition at 150 µg/mL (P. cinnamomi)	inhibition at 250 µg/mL (P. cinnamomi)	LC50 ± SD [1]	CC50 [2]	LC50 ± SD ([2]; MDA-MB-231, 72 h)	CC50 at 72 h ([3]; MEF (non-cancerous cells), 72 h, read-out: LC50 ± SD)	CC50 at 72 h [3]
–	COc1cc(O)c2c(c1)O[C@H](c1ccc(O)cc1)CC2=O [Compound 1, (-)-(2S)-5,4’-dihydroxy-7-methoxyflavanone]	> 100 µg/mL	> 100 µg/mL	> 100 µg/mL	> 100 µg/mL	> 100 µg/mL	0%	0%	0%	no significant cytotoxic activity	~1100 µM	no significant cytotoxic activity	146 ± 23.4 µM	–
0.05 µM	COc1cc(O)c2c(c1)O[C@H](c1ccc(O)c(O)c1)CC2=O [Compound 2, (-)-(2S)-5,3’,4’-trihydroxy-7-methoxyflavanone]	> 100 µg/mL	50 µg/mL (≈ 165 µM)	> 100 µg/mL	> 100 µg/mL	> 100 µg/mL	0%	33 ± 5.8%	42 ± 5.3%	–	48.7 ± 9.32 µM	–	–	31 ± 3.69 µM
